Data on 18 molecules can be found in patent publication US11591341B2 (ALIGOS THERAPEUTICS, INC., priority 2019, dated 2023).

By EC50 is commonly meant the concentration needed to bring the measured effect to its halfway point. A high value points to a less potent agent.

The assay concerns HBV. Description: HBV-DNA Antiviral Assay Using HepG2.117 Cells (intracellular HBV DNA by qPCR). It counts as cell-based, hepatitis B virus (genotype D). The note with it: Hepatitis B virus, HepG2.117. The method in brief:
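HepG2.117 cells (genotype D HBV, Tet-off) were induced by doxycycline withdrawal and treated for 3 days with 9 concentrations in 4-fold dilution, 2% DMSO final. Intracellular HBV DNA was measured by qPCR against a standard curve, with ATPlite viability read in parallel. EC50, EC90 and CC50 came from fits against the DMSO control.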

Some results are limits rather than exact numbers.

As to `COc1ccc([C@@H](C)NC(=O)c2c3n(c(=O)n2-c2ccc(OC4CC4)cc2)CC(C)N(C(=O)c2ccc(Br)c(Cl)c2)C3)cc1` (mixture of isomers) [Example 449, (6RS)-7-(4-bromo-3-chloro-benzoyl)-2-[4-(cyclopropoxy)phenyl]-N-[(1R)-1-(4-methoxyphenyl)ethyl]-6-methyl-3-oxo-6,8-dihydro-5H-imidazo[1,5-a]pyrazine-1-carboxamide], the 50% effective concentration (EC50) lay in the range of 0.5 to 5 µM. Under `CC(C)Oc1ccc(-n2c(C(=O)NCc3ccc(C(C)(C)O)cc3)c3n(c2=O)CCN(C(=O)c2ccc(Br)c(Cl)c2)C3)cc1` [Example 407, 7-(4-bromo-3-chloro-benzoyl)-N-[[4-(1-hydroxy-1-methyl-ethyl)phenyl]methyl]-2-(4-isopropoxyphenyl)-3-oxo-6,8-dihydro-5H-imidazo[1,5-a]pyrazine-1-carboxamide] stands less than 0.1 µM; under `C[C@H](NC(=O)c1c2n(c(=O)n1-c1ccc(OCC(F)(F)F)cc1)CCN(C(=O)c1ccc(Br)c(Cl)c1)C2)c1ccc(OCC#N)cc1F` (stereo in doubt) [Example 345, 7-(4-bromo-3-chloro-benzoyl)-3-oxo-N-[rac-(1S)-1-[4-(cyanomethoxy)-2-fluoro-phenyl]ethyl]-2-[4-(2,2,2-trifluoroethoxy)phenyl]-6,8-dihydro-5H-imidazo[1,5-a]pyrazine-1-carboxamide], 0.1 to 0.5 µM; under `O=C(NCc1ccccc1-c1cnccn1)c1c2n(c(=O)n1-c1ccc(OC3CC3)cc1)CCN(C(=O)c1ccc(Br)c(Cl)c1)C2` [Example 401, 7-(4-bromo-3-chloro-benzoyl)-2-[4-(cyclopropoxy)phenyl]-3-oxo-N-[(2-pyrazin-2-ylphenyl)methyl]-6,8-dihydro-5H-imidazo[1,5-a]pyrazine-1-carboxamide], less than 0.1 µM. `CC(C)Oc1ccc(-n2c(C(=O)NCc3ccc(S(C)(=O)=O)cc3)c3n(c2=O)CCN(C(=O)c2ccc(Br)c(Cl)c2)C3)cc1` [Example 227, 7-(4-bromo-3-chloro-benzoyl)-2-(4-isopropoxypehnyl)-N-[(4-methylsulfonylphenyl)methyl]-3-oxo-6,8-dihydro-5H-imidazo[1,5-a]pyrazine-1-carboxamide] returned an EC50 of 0.5 to 5 µM.

`COc1ccc(-n2c(C(=O)N[C@@H](c3ccccc3)C(F)F)c3n(c2=O)CCN(C(=O)c2ccc(Br)c(Cl)c2)C3)cc1` (stereo in doubt) [Example 252, 7-(4-bromo-3-chloro-benzoyl)-2-(4-methoxyphenyl)-3-oxo-N-[rac-(1S)-2,2-difluoro-1-phenyl-ethyl]-6,8-dihydro-5H-imidazo[1,5-a]pyrazine-1-carboxamide] had an EC50 of 0.1 to 0.5 µM.

In turn, `CC(C)Oc1ccc(-n2c(-c3ncc(-c4ccccc4)o3)c3n(c2=O)CCN(C(=O)c2ccc(Br)c(Cl)c2)C3)cc1` [Example 197, 7-(4-bromo-3-chloro-benzoyl)-2-(4-isopropoxyphenyl)-1-(5-phenyloxazol-2-yl)-6,8-dihydro-5H-imidazo[1,5-a]pyrazin-3-one] registered an EC50 of more than 5 µM. For the molecule `O=C(NCc1ccc(OC2COC2)cc1F)c1c2n(c(=O)n1-c1ccc(OC3CC3)cc1)CCN(C(=O)c1ccc(Br)c(Cl)c1)C2` [Example 363, 7-(4-bromo-3-chloro-benzoyl)-2-[4-(cyclopropoxy)phenyl]-N-[[2-fluoro-4-(oxetan-3-yloxy)phenyl]methyl]-3-oxo-6,8-dihydro-5H-imidazo[1,5-a]pyrazine-1-carboxamide], the EC50 fell in the range of 0.1 to 0.5 µM. Regarding `COc1ccc(-n2c(C(=O)NCc3ccccc3OC)c3n(c2=O)CCN(C(=O)c2ccc(Cl)c(Cl)c2)C3)cc1` [Example 115, 7-(3,4-dichlorobenzoyl)-2-(4-methoxyphenyl)-N-[(2-methoxyphenyl)methyl]-3-oxo-6,8-dihydro-5H-imidazo[1,5-a]pyrazine-1-carboxamide], the EC50 lay in the range of 0.1 to 0.5 µM. The figure for `CC(NC(=O)c1c2n(c(=O)n1-c1ccc(OCC(F)(F)F)cc1)CCN(C(=O)c1ccc(Br)c(Cl)c1)C2)c1ccc(OC2COC2)cc1F` (racemic) [Example 348, 7-(4-bromo-3-chloro-benzoyl)-3-oxo-N-[rac-(1R)-1-[2-fluoro-4-(oxetan-3-yloxy)phenyl]ethyl]-2-[4-(2,2,2-trifluoroethoxy)phenyl]-6,8-dihydro-5H-imidazo[1,5-a]pyrazine-1-carboxamide] is 0.5 to 5 µM. The figure for `COc1ccc(-n2c(C(=O)NCc3ccccc3F)c3n(c2=O)CCN(C(=O)c2ccc(Br)c(Cl)c2)C3)cc1` [Example 181, 7-(4-bromo-3-chloro-benzoyl)-N-[(2-fluorophenyl)methyl]-2-(4-methoxyphenyl)-3-oxo-6,8-dihydro-5H-imidazo[1,5-a]pyrazine-1-carboxamide] is 0.1 to 0.5 µM. The figure for `O=C(NCc1ccccc1)c1c2n(c(=O)n1-c1ccc(OC(F)F)cc1)CCN(C(=O)c1ccc(Cl)c(Cl)c1)C2` [Example 121, N-benzyl-7-(3,4-dichlorobenzoyl)-2-[4-(difluoromethoxy)phenyl]-3-oxo-6,8-dihydro-5H-imidazo[1,5-a]pyrazine-1-carboxamide] is 0.5 to 5 µM; for `CC(C)COc1ccc(-n2c(C(=O)NCc3ccccc3)c3n(c2=O)CCN(C(=O)c2ccc(Br)c(Cl)c2)C3)cc1` [Example 272, N-benzyl-7-(4-bromo-3-chloro-benzoyl)-2-(4-isobutoxyphenyl)-3-oxo-6,8-dihydro-5H-imidazo[1,5-a]pyrazine-1-carboxamide] it is 0.1 to 0.5 µM; for `NC(=O)COc1ccc(-n2c(C(=O)NCc3ccccc3)c3n(c2=O)CCN(C(=O)c2ccc(Br)c(Cl)c2)C3)cc1` [Example 285, 2-[4-(2-amino-2-oxo-ethoxy)phenyl]-N-benzyl-7-(4-bromo-3-chloro-benzoyl)-3-oxo-6,8-dihydro-5H-imidazo[1,5-a]pyrazine-1-carboxamide] it is 0.5 to 5 µM. `C[C@@H](NC(=O)c1c2n(c(=O)n1-c1ccc(OC3CC3)cc1)CCN(C(=O)c1ccc(Br)c(Cl)c1)C2)c1cccc2nccnc12` (racemic) [Example 383, 7-(4-bromo-3-chloro-benzoyl)-2-[4-(cyclopropoxy)phenyl]-3-oxo-N-[rac-(1R)-1-quinoxalin-5-ylethyl]-6,8-dihydro-5H-imidazo[1,5-a]pyrazine-1-carboxamide] gave an EC50 of 0.1 to 0.5 µM. Under `COc1ccc(-n2c(C(=O)NCc3cccc(C(F)(F)F)c3)c3n(c2=O)CCN(C(=O)c2ccc(Br)c(Cl)c2)C3)cc1` [Example 152, 7-(4-bromo-3-chloro-benzoyl)-2-(4-methoxyphenyl)-3-oxo-N-[[3-(trifluoromethyl)phenyl]methyl]-6,8-dihydro-5H-imidazo[1,5-a]pyrazine-1-carboxamide] stands 0.1 to 0.5 µM; under `CNC(=O)c1ccc(-n2c(C(=O)NCc3ccccc3)c3n(c2=O)CCN(C(=O)c2ccc(Br)c(Cl)c2)C3)cc1` [Example 36, N-benzyl-7-(4-bromo-3-chloro-benzoyl)-2-[4-(methylcarbamoyl)phenyl]-3-oxo-6,8-dihydro-5H-imidazo[1,5-a]pyrazine-1-carboxamide], more than 5 µM. Under `O=C(NCc1ccccc1)c1c2n(c(=O)n1-c1ncccn1)CCN(C(=O)c1ccc(Cl)c(Cl)c1)C2` [Example 138, N-benzyl-7-(3,4-dichlorobenzoyl)-3-oxo-2-pyrimidin-2-yl-6,8-dihydro-5H-imidazo[1,5-a]pyrazine-1-carboxamide] stands more than 5 µM.
